The values that follow are results of earlier work, collected in patent US20030073837A1, “3-HETEROARYLIDENYL-2-INDOLINONE COMPOUNDS FOR MODULATING PROTEIN KINASE ACTIVITY AND FOR USE IN CANCER CHEMOTHERAPY” (priority 1998, published 2003).

Data set [1] deals with metastatic colorectal cancer. To be noted: single agent; cited from earlier work.
The conditions of data set [2]: cited from earlier work.
Data set [3] has as its system advanced metastatic colorectal cancer. To be noted: cited from earlier work.

As to `O=c1[nH]cc(F)c(=O)[nH]1` [fluorouracil, 5-fluoro-2,4 (1H,3H)-pyrimidinedione], in data set [1], the median survival entry is reported as “six” and the response rate result is “about 15%”. The excreted in urine result in data set [2] (in vivo) is “Less than 10%”. The plasma levels result in data set [2] (within 2 hours, intravenous bolus 370 to 720 mg/m^2) is listed as “below 1 μM”. In addition, the median survival time in data set [3] (fluorouracil alone 500 mg/m^2) is on record as 7.7 months. Moreover, the response rate in data set [3] (fluorouracil alone 500 mg/m^2 daily for 5 days every 28-35 days) was 10%.
